Experimental data published in US20040266766A1, “Selective urokinase inhibitors” (Wilex AG, priority 2001, published 2004).
Structures can show the parent of a compound that is named as a salt. Where two headings read alike, the source gives them in different places.

Legend:
[1] = target: T1, urokinase (uPA) (Homo sapiens, UniProt P00749); assay: In vitro inhibition of urokinase (Ki according to Dixon, chromogenic substrate); assay type: biochemical
T1 construct: purchased Calbiochem-Novabiochem GmbH, Bad Soden, Germany
How it was run: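 Chromogenic read-out in 0.05 mol/l Tris, 0.154 mol/l NaCl, pH 8.0, with inhibitor, substrate (Pefachrome uPA, Pefachrome PL or Pefabloc TH) and protease, incubated 10 min at 30 °C. Absorbance at 405 nm was read after ca. 30 min (30 cycles). Ki was derived by Dixon linear regression.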

[2] = target: Plasmin (Homo sapiens, UniProt P00747); assay: In vitro inhibition of plasmin (Ki according to Dixon); assay type: biochemical
Protocol: (§1) In order to determine the inhibitory activity, 200 μl Tris buffer (0.05 mol/l containing the inhibitor, 0.154 mol/l NaCl, pH 8.0), 25 μl substrate (Pefachrome uPA, Pefachrome PL or Pefabloc TH in H2O; Pentapharm Ltd, Basle, Switzerland) and 50 μl urokinase (Calbiochem-Novabiochem GmbH, Bad Soden, Germany) or another appropriate protease e.g. plasmin, thrombin or FXa are incubated for 10 minutes at 30° C. After ca. 30 minutes and 30 cycles the absorption is determined at 405 nm by means of a microplate reader (Mediators PHL, Aureon Biosystems, Vienna, Austria). The Ki values were determined according to Dixon by linear regression using a computer program.

[3] = target: Thrombin (Homo sapiens, UniProt P00734); assay: In vitro inhibition of thrombin (Ki according to Dixon); assay type: biochemical
Protocol: as §1

[4] = target: FXa (Homo sapiens, UniProt P00742); assay: In vitro inhibition of FXa (Ki according to Dixon); assay type: biochemical
Protocol: as §1

[5] = target: PK (Homo sapiens, UniProt P03952); assay: In vitro inhibition of PK (Ki); assay type: biochemical; settings: summary table
Protocol: as §1

[6] = tested on: Caco-2 cell monolayers; assay: Caco-assay: transport across Caco-2 cell monolayers; assay type: in vitro ADME, human; settings: for % amount in the basolateral compartment: 10 μg/ml apical, four hours
Protocol: Transport of the compounds WX-508, WXC-316, WXC-318, WXC-324, WXC-340, WX-532, WX-538, WX-550 and WX-582 across Caco-2 cell monolayers was investigated. In this experiment the bioavailability of the said compounds after oral administration was assessed.
Caco-2-cells (American Type Culture Collection, Rockville, Md., USA) were cultured in Dulbecco's modified Eagle medium (DMEM) (Life Technologies, Gibco BRL, UK) containing 10% vol/vol heat-denatured foetal calf serum (FCS), 1% vol/vol non-essential amino acids, 160 U/ml benzylpenicillin and 100 U/ml streptomycin (Sigma Chemical, St. Louis, Mo., USA). The cells are kept at 37° C. in an atmosphere comprising 95% air and 5% CO2 at 90% relative air humidity. The cells are cultured in […] culture flasks, the medium being replaced every second day and the cells are trypsinized once per week.
For the transport investigations the Caco-2 cells are cultured on porous polycarbonate filter membranes having a pore size of 0.4 μm and a surface of 4.7 cm^2 in clusters of 6 wells (Costar Transwell, Badhoevedorp, Netherlands). The cells are inoculated on each filter at an initial density of 10^4 cells/cm^2. These cells are kept at 37° C. in one of the atmospheres described above. The medium is replaced every second day for a period of three weeks.
On the day of the transport experiment the culture medium was replaced by the same volume of Hank's balanced saline solution (HBSS) buffered with 30 mM HEPES at pH 7.2 (transport medium) and the cells are allowed to equilibrate for 1 hour. Afterwards the apical medium is replaced by 1.5 ml of a solution containing one of the compounds in HBSS/HEPES (10 μg/ml). Cell monolayers are incubated for four hours. Samples of the apical and basolateral compartments are removed at the end of the experiments and used to quantitatively determine the transport of the respective compounds.
The transepithelial electric resistance (TEER) is measured before and after equilibration using a Milicell ERS meter which was connected to a pair of electrodes in order to ensure the integrity of the monolayers formed on the filters. TEER is also measured at the end of the experiments to ensure that the cell monolayer remains coherent.
Samples are taken from the apical and the basolateral side and analysed in a beta counter after adding a scintillation cocktail. All experiments were carried out three times.

[7] = Oral bioavailability and plasma kinetics in mice (serum concentration); assay type: in vivo, Balb/c mice; settings: mouse; for concentration at 20 min / concentration at 40 min / concentration at 60 min: female, Balb/c, serum, po, read-out: c in the serum 1st analysis; for concentration at 20 min: sample at 20 minutes; for concentration at 40 min: sample at 40 minutes; for concentration at 60 min: sample at 60 minutes
[8] = list of test substances of Example 17, read-out: Ki human uPA
[9] = summary table, read-out: Ki uPA

FXa, sequence (P00742 235-488 limits assumed): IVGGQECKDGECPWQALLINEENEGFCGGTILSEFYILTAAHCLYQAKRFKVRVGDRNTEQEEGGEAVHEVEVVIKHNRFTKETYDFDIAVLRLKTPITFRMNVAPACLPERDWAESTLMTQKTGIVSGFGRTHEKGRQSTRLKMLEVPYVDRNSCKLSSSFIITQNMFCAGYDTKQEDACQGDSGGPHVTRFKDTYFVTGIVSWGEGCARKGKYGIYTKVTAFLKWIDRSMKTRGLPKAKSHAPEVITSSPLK
FXa, sequence (P00742 41-179 partner limits assumed): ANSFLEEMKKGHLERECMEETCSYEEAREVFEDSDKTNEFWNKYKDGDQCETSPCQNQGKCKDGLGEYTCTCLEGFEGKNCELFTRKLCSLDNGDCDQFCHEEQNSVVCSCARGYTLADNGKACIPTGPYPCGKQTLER
PK, sequence (P03952 20-638): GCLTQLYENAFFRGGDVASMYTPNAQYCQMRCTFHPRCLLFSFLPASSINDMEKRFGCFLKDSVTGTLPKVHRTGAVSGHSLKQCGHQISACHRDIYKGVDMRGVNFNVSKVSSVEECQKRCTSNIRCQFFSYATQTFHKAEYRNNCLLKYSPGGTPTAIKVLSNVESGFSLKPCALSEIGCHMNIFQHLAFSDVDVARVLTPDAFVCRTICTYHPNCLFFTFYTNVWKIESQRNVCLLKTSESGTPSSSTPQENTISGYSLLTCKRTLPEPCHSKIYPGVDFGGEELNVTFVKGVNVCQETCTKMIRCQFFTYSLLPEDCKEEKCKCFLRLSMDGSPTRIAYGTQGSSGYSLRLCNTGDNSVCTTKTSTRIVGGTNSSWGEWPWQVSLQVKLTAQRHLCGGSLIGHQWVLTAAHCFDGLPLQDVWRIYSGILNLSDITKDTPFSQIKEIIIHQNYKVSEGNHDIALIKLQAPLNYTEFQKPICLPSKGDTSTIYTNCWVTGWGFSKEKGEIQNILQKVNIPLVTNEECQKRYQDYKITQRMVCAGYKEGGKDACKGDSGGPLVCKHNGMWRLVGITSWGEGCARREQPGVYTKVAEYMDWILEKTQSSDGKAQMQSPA
Plasmin, sequence (P00747 581-810 limits assumed, species assumed): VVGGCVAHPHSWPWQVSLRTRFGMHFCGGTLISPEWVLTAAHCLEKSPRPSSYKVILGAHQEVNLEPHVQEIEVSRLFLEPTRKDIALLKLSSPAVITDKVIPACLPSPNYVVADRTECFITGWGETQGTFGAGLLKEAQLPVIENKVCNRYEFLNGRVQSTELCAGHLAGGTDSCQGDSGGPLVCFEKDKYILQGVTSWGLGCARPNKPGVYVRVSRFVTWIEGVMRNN
Plasmin, sequence (P00747 97-580 partner limits assumed, species assumed): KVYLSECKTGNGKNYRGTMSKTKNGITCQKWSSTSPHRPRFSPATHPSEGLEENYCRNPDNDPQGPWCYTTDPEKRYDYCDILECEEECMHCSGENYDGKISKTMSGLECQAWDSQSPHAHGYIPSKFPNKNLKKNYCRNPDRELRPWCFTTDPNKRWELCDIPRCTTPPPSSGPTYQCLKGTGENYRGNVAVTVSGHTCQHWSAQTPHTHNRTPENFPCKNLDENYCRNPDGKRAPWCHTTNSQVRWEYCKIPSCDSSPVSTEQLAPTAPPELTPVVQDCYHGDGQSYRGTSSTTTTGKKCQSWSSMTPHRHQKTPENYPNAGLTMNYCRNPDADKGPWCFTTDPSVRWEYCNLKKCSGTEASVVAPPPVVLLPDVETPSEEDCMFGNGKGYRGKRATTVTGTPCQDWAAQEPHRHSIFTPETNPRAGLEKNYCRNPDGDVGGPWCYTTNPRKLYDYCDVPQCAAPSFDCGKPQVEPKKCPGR

Compound | Ki [1, 8] | Ki ([1]; read-out: Ki uPA) | Ki [1, 9] | Ki [2] | Ki [3] | Ki ([3]; summary table) | Ki [4] | Ki ([4]; summary table) | Ki [5] | % amount in the basolateral compartment ([6]; first value column) | % amount in the basolateral compartment ([6]; second value column) | % amount in the basolateral compartment ([6]; third value column) | Caco-2 assay % basolateral ([6]; first series, first value) | Caco-2 assay % basolateral ([6]; first series, second value) | Caco-2 assay % basolateral ([6]; first series, third value) | other results
N=C(N)Nc1ccc(CNC(=O)[C@H](CCc2ccccc2)NC(=O)C(CO)NS(=O)(=O)Cc2ccccc2)cc1 (stereo partly drawn) [WX-550, Benzylsulfonyl-(D)-Ser-HomoPhe-(4-guanidinobenzyl)amide hydrochloride] | 0.1 µM | 0.1 µM | 0.1 µM | 2.5 µM | > 50 µM | > 50 µM | > 100 µM | > 100 µM | 268 µM | 0% | 3.1% | 0.6% | 0% | 3.1% | 0.6% | concentration at 20 min ([7]; 7.5 mg/kg, 7.5 mg/kg oral): 0 ng/mL; concentration at 40 min ([7]; 7.5 mg/kg, 7.5 mg/kg oral): 0 ng/mL; concentration at 60 min ([7]; 7.5 mg/kg, 7.5 mg/kg oral): 0 ng/mL; concentration at 20 min ([7]; 75 mg/kg, 75 mg/kg oral): 0 ng/mL; concentration at 40 min ([7]; 75 mg/kg, 75 mg/kg oral): 300 ng/mL; concentration at 60 min ([7]; 75 mg/kg, 75 mg/kg oral): 0 ng/mL; c in the serum 1st analysis ([7]; 2.5 mg/kg i.v., time of sample collection 0): 7.2 µg/mL; c in the serum 1st analysis ([7]; 2.5 mg/kg i.v., time of sample collection 10): 0.7 µg/mL; c in the serum 1st analysis ([7]; 2.5 mg/kg i.v., time of sample collection 30): 0.02 µg/mL
CN(CC(=O)NCc1ccc(NC(=N)N)cc1)C(=O)C(CO)NS(=O)(=O)Cc1ccccc1 (stereo not drawn) [WX-538, benzylsulfonyl-(D)-Ser-N-Me-Gly-(4-guanidinobenzyl)amide] | 0.041 µM | 0.041 µM | 0.041 µM | 130 µM | > 100 µM | > 100 µM | > 100 µM | > 100 µM | 109 µM | 0.2% | 0.2% | 0.1% | 0.2% | 0.2% | 0.1% | Caco-2 assay % basolateral ([6]; second series, first value): 0.1%; Caco-2 assay % basolateral ([6]; second series, second value): 0.1%; Caco-2 assay % basolateral ([6]; second series, third value): 0%; concentration at 20 min ([7]; 30 mg/kg, 30 mg/kg oral): 100 ng/mL; concentration at 40 min ([7]; 30 mg/kg, 30 mg/kg oral): 50 ng/mL; concentration at 60 min ([7]; 30 mg/kg, 30 mg/kg oral): 200 ng/mL; concentration at 20 min ([7]; 300 mg/kg, 300 mg/kg oral): 2500 ng/mL; concentration at 40 min ([7]; 300 mg/kg, 300 mg/kg oral): 3500 ng/mL; concentration at 60 min ([7]; 300 mg/kg, 300 mg/kg oral): 2300 ng/mL; c in the serum 1st analysis ([7]; 10 mg/kg i.v., time of sample collection 0): 45.8 µg/mL; c in the serum 1st analysis ([7]; 10 mg/kg i.v., time of sample collection 10): 5.5 µg/mL; c in the serum 1st analysis ([7]; 10 mg/kg i.v., time of sample collection 30): 0.6 µg/mL
